In ChEMBL document CHEMBL5543105, “Total synthesis and structural modification of the dibenzylbutane lignan LCA as a potent anti-inflammatory agent against LPS-induced acute lung injury” (Eur J Med Chem, 2024):
Calls of active or inactive are those of the source. The calls are words filed in the database; no cut-off is given here.

Assays:
RAW264.7 [1] = test: Anti-inflammatory activity against mouse RAW264.7 cells assessed as inhibition of LPS-stimulated nitric oxide production at 2.5 to 20 uM incubated for 5 hrs by Griess reagent based microplate reader analysis; type: functional, cell-based; conditions: dose 2.5-20 µM
RAW264.7 [2] = test: Anti-inflammatory activity against mouse RAW264.7 cells assessed as inhibition of LPS-induced IL-6 mRNA expression pretreated with compound for 1 hr followed by LPS-induction and measured after 24 hrs by RT-qPCR analysis; type: functional, cell-based; conditions: dose 10-20 µM, time 25.0 hrs
RAW264.7 [3] = test: Anti-inflammatory activity against mouse RAW264.7 cells assessed as inhibition of LPS-induced TNF-alpha mRNA expression pretreated with compound for 1 hr followed by LPS-induction and measured after 24 hrs by RT-qPCR analysis; type: functional, cell-based; conditions: dose 10-20 µM, time 25.0 hrs
Mus musculus [4] = test: Anti-inflammatory activity against LPS-induced acute […] injury C57BL/6 mouse model assessed as improvement in alveolar wall thickness at 20 mg/kg, ip administered for 1 hr and measured after 6 hrs by H and E staining based analysis; type: functional, organism-based; conditions: time 7.0 hrs
Mus musculus [5] = test: Anti-inflammatory activity against LPS-induced acute […] injury C57BL/6 mouse model assessed as improvement in lung edema at 20 mg/kg, ip administered for 1 hr and measured after 6 hrs by H and E staining based analysis; type: functional, organism-based; conditions: time 7.0 hrs
Mus musculus [6] = test: Anti-inflammatory activity against LPS-induced acute […] injury C57BL/6 mouse model assessed as reduction in IL-6 level in BALF at 20 mg/kg, ip administered for 1 hr and measured after 6 hrs by ELISA analysis; type: functional, organism-based; conditions: time 7.0 hrs
Mus musculus [7] = test: Anti-inflammatory activity against LPS-induced acute […] injury C57BL/6 mouse model assessed as reduction in bleeding points in lung at 20 mg/kg, ip administered for 1 hr and measured after 6 hrs by H and E staining based analysis; type: functional, organism-based; conditions: time 7.0 hrs
Mus musculus [8] = test: Anti-inflammatory activity against LPS-induced acute […] injury C57BL/6 mouse model assessed as reduction in lung edema at 20 mg/kg, ip administered for 1 hr and measured after 6 hrs by H and E staining based analysis; type: functional, organism-based; conditions: time 7.0 hrs
RAW264.7 [9] = test: Cytotoxicity against mouse RAW264.7 cells upto 20 uM incubated for 24 hrs by CCK-8 assay; type: toxicity, cell-based; conditions: raw264.7, 24 h
Mus musculus [10] = test: Anti-inflammatory activity against LPS-induced acute […] injury C57BL/6 mouse model assessed as reduction in congestion in lung at 20 mg/kg, ip administered for 1 hr and measured after 6 hrs by H and E staining based analysis; type: functional, organism-based; conditions: time 7.0 hrs
Mus musculus [11] = test: Anti-inflammatory activity against LPS-induced acute […] injury C57BL/6 mouse model assessed as reduction in IL-1beta level in serum at 20 mg/kg, ip administered for 1 hr and measured after 6 hrs by ELISA analysis; type: functional, organism-based; conditions: time 7.0 hrs
RAW264.7 [12] = test: Anti-inflammatory activity against mouse RAW264.7 cells assessed as inhibition of LPS-induced IL-1beta mRNA expression pretreated with compound for 1 hr followed by LPS-induction and measured after 24 hrs by RT-qPCR analysis; type: functional, cell-based; conditions: dose 10-20 µM, time 25.0 hrs
Mus musculus [13] = test: Anti-inflammatory activity against LPS-induced acute […] injury C57BL/6 mouse model assessed as reduction in IL-1beta level in BALF at 20 mg/kg, ip administered for 1 hr and measured after 6 hrs by ELISA analysis; type: functional, organism-based; conditions: time 7.0 hrs
RAW264.7 [14] = test: Anti-inflammatory activity against mouse RAW264.7 cells assessed as inhibition of LPS-induced NO production at 20 uM incubated for 24 hrs; type: functional, cell-based
Mus musculus [15] = test: Anti-inflammatory activity against LPS-induced acute […] injury C57BL/6 mouse model assessed as decrease in IL-1beta mRNA expression in lung at 20 mg/kg, ip administered for 1 hr and measured after 6 hrs by RT-qPCR analysis; type: functional, organism-based; conditions: time 7.0 hrs
Mus musculus [16] = test: Anti-inflammatory activity against LPS-induced acute […] injury C57BL/6 mouse model assessed as reduction in TNF-alpha level in BALF at 20 mg/kg, ip administered for 1 hr and measured after 6 hrs by ELISA analysis; type: functional, organism-based; conditions: time 7.0 hrs
Mus musculus [17] = test: Anti-inflammatory activity against LPS-induced acute […] injury C57BL/6 mouse model assessed as decrease in IL-6 mRNA expression in lung at 20 mg/kg, ip administered for 1 hr and measured after 6 hrs by RT-qPCR analysis; type: functional, organism-based; conditions: time 7.0 hrs
RAW264.7 [18] = test: Anti-inflammatory activity against mouse RAW264.7 cells assessed as inhibition of LPS-induced p65 phosphorylation at 10 to 20 uM pretreated with compound for 1 hr followed by LPS-induction and measured after 4 hrs by Western blot analysis; type: functional, cell-based; conditions: dose 10-20 µM, time 5.0 hrs
Mus musculus [19] = test: Anti-inflammatory activity against LPS-induced acute […] injury C57BL/6 mouse model assessed as reduction in alveolar thickness in lung at 20 mg/kg, ip administered for 1 hr and measured after 6 hrs by H and E staining based analysis; type: functional, organism-based; conditions: time 7.0 hrs
Mus musculus [20] = test: Anti-inflammatory activity against LPS-induced acute […] injury C57BL/6 mouse model assessed as reduction in TNF-alpha level in serum at 20 mg/kg, ip administered for 1 hr and measured after 6 hrs by ELISA analysis; type: functional, organism-based; conditions: time 7.0 hrs
Mus musculus [21] = test: Anti-inflammatory activity against LPS-induced acute […] injury C57BL/6 mouse model assessed as reduction in IL-6 level in serum at 20 mg/kg, ip administered for 1 hr and measured after 6 hrs by ELISA analysis; type: functional, organism-based; conditions: time 7.0 hrs
RAW264.7 [22] = test: Anti-inflammatory activity against mouse RAW264.7 cells assessed as reduction in LPS-induced TNF-alpha level pretreated with compound for 1 hr followed by LPS-induction and measured after 24 hrs by ELISA analysis; type: functional, cell-based; conditions: dose 1.25-20 µM, time 25.0 hrs
RAW264.7 [23] = test: Anti-inflammatory activity against mouse RAW264.7 cells assessed as inhibition of LPS-induced nuclear translocation at 10 to 20 uM pretreated with compound for 1 hr followed by LPS-induction and measured after 4 hrs by DAPI staining based fluorescence microscopic analysis; type: functional, cell-based; conditions: dose 10-20 µM, time 5.0 hrs
Mus musculus [24] = test: Anti-inflammatory activity against LPS-induced acute […] injury C57BL/6 mouse model assessed as decrease in TNF-alpha mRNA expression in lung at 20 mg/kg, ip administered for 1 hr and measured after 6 hrs by RT-qPCR analysis; type: functional, organism-based; conditions: time 7.0 hrs
Mus musculus [25] = test: Anti-inflammatory activity against LPS-induced acute […] injury C57BL/6 mouse model assessed as reduction in inflammatory cell infiltration at 20 mg/kg, ip administered for 1 hr and measured after 6 hrs by H and E staining based analysis; type: functional, organism-based; conditions: time 7.0 hrs
RAW264.7 [26] = test: Anti-inflammatory activity against mouse RAW264.7 cells assessed as reduction in LPS-induced IL-6 level pretreated with compound for 1 hr followed by LPS-induction and measured after 24 hrs by ELISA analysis; type: functional, cell-based; conditions: dose 1.25-20 µM, time 25.0 hrs
Mus musculus [27] = test: Anti-inflammatory activity against LPS-induced acute […] injury C57BL/6 mouse model assessed as improvement in alveolar structure at 20 mg/kg, ip administered for 1 hr and measured after 6 hrs by H and E staining based analysis; type: functional, organism-based; conditions: time 7.0 hrs
Mus musculus [28] = test: Anti-inflammatory activity against LPS-induced acute […] injury C57BL/6 mouse model assessed as improvement in pulmonary hemorrhage at 20 mg/kg, ip administered for 1 hr and measured after 6 hrs by H and E staining based analysis; type: functional, organism-based; conditions: time 7.0 hrs
RAW264.7 [29] = test: Anti-inflammatory activity against mouse RAW264.7 cells assessed as reduction in NO level pretreated with compound for 1 hr followed by LPS-induction and measured after 24 hrs; type: functional, cell-based; conditions: dose 1.25-20 µM, time 25.0 hrs
RAW264.7 [30] = test: Anti-inflammatory activity against mouse RAW264.7 cells assessed as reduction in LPS-induced IL-1beta level pretreated with compound for 1 hr followed by LPS-induction and measured after 24 hrs by ELISA analysis; type: functional, cell-based; conditions: dose 1.25-20 µM, time 25.0 hrs
RAW264.7 [31] = test: Anti-inflammatory activity against mouse RAW264.7 cells assessed as reduction in LPS-induced IkappaBalpha level at 10 to 20 uM pretreated with compound for 1 hr followed by LPS-induction and measured after 4 hrs by Western blot analysis; type: functional, cell-based; conditions: dose 10-20 µM, time 5.0 hrs
Mus musculus [32] = test: Anti-inflammatory activity against LPS-induced acute […] injury C57BL/6 mouse model assessed as reduction in wet weight to dry weight ratio in lung at 20 mg/kg, ip administered for 1 hr and measured after 6 hrs; type: functional, organism-based; conditions: time 7.0 hrs
Mus musculus [33] = test: Anti-inflammatory activity against LPS-induced acute […] injury C57BL/6 mouse model assessed as improvement in destruction of lung structure at 20 mg/kg, ip administered for 1 hr and measured after 6 hrs by H and E staining based analysis; type: functional, organism-based; conditions: time 7.0 hrs

COc1cc(C[C@H](C(=O)N2CCN(c3cccc(C)c3C)CC2)[C@@H](Cc2cc(OC)c(O)c(OC)c2)C(=O)N2CCN(c3cccc(C)c3C)CC2)cc(OC)c1O was tested, and the Activity (RAW264.7 [1]) was “Active”, the Activity (RAW264.7 [2]) was “Dose-Dependent Effect” and the Activity (RAW264.7 [3]) was “Dose-Dependent Effect”. For the same compound, the Activity (Mus musculus [4]) was “Active”, the Activity (Mus musculus [5]) was “Active” and the Activity (Mus musculus [6]) was “Active”. For the same compound, the Activity (Mus musculus [7]) was “Active”, the Activity (Mus musculus [8]) was “Active” and the Activity (RAW264.7 [9]) was “Non-Toxic”. The Activity (Mus musculus [10]) was “Active”, the Activity (Mus musculus [11]) was “Active” and the Activity (RAW264.7 [12]) was “Dose-Dependent Effect”. The Activity (Mus musculus [13]) was “Active”, the Activity (RAW264.7 [14]) was “Active” and the Activity (Mus musculus [15]) was “Active”. The Activity (Mus musculus [16]) was “Active”, the Activity (Mus musculus [17]) was “Active” and the Activity (RAW264.7 [18]) was “Active”. The Activity (Mus musculus [19]) was “Active”, the Activity (Mus musculus [20]) was “Active” and the Activity (Mus musculus [21]) was “Active”. The Activity (RAW264.7 [22]) was “Dose-Dependent Effect”, the Activity (RAW264.7 [23]) was “Active” and the Activity (Mus musculus [24]) was “Active”. The Activity (Mus musculus [25]) was “Active”, the Activity (RAW264.7 [26]) was “Dose-Dependent Effect” and the Activity (Mus musculus [27]) was “Active”. The Activity (Mus musculus [28]) was “Active”, the Activity (RAW264.7 [29]) was “Dose-Dependent Effect” and the Activity (RAW264.7 [30]) was “Dose-Dependent Effect”. For the same compound, the Activity (RAW264.7 [31]) was “Active”, the Activity (Mus musculus [32]) was “Active” and the Activity (Mus musculus [33]) was “Active”.
